From patent US20190382432A1 (Synbias Pharma AG, priority 2013, published 2019)
Structures can show the parent of a compound that is named as a salt. Marks after values point to notes of the source that are not given here.

Key:
Format in all cases: physicochemical
[1] = Thermostability on storage at 25, 40 and 100 °C per ICH Q1A (R2), HPLC; conditions: 25, 40, 100 °C; data not shown
Experimental: HPLC and GC analyses were performed according to standard protocols.
The testing was performed as described in the ICH guidelines (cf. inter alia ICH Guideline Q1A (R2)).

[2] = Hygroscopic capacity: water content by Karl-Fischer titration after exposure to temperature and relative humidity; conditions: 25 or 40 °C, 40-90% rh; data not shown
Experimental: Coulometric Karl-Fischer titration (KFT; for determining the water content) was performed with an external drying oven (Metrohm 707 KF; operated at 140° C. with N2 purge). The samples were precisely weighed on an analytical balance (10^−5 g).
The testing was performed as described in the ICH guidelines.

[3] = Thermostability under stress conditions (storage at 100 °C for one month), HPLC
Experimental: Sample S was prepared according to the present invention, as described in Example 3 above. Sample M1 was prepared according to Example 1 of WO 2012/163508 A1, as described in Example 7 above. Finally, Sample M2 was prepared according to Example 2 of WO 2012/163508 A1, as described in Example 7 above.
The samples were exposed to a temperature of 100° C. for the time period (in weeks) indicated. The testing was performed as described in the ICH Guideline Q1A (R2) (cf. above). The amount of the degradation product (i.e. doxorubicinone) produced as well as those of various impurities (i.e., doxorubicin and four different impurities of yet unknown identity; all given in % (w/w); “n.d.”=not determined) was determined by HPCL analysis (“LT”=less than).

[4] = Particle size distribution by laser diffraction analysis (Mastersizer 2000); conditions: wet laser diffraction in acetone; listed as Sample 3, hydrochloride
Experimental: Laser diffraction analysis was performed in form of wet laser diffraction in acetone: 1750 rpm, 3×20 s cycle time, 60 s background time, without sonication, and 5 min stirring time using a Mastersizer 2000 Particle Size Analyzer (Malvern Instruments Ltd., Malvern, UK) according to the manufacturer's instructions.

COc1cccc2c1C(=O)c1c(O)c3c(c(O)c1C2=O)C[C@@](O)(C(=O)CO)C[C@@H]3O[C@H]1C[C@H](N)[C@H](O)[C@H](C)O1 [S, epirubicin hydrochloride]
Thermostability compared with the Example 1 monohydrate (TABLE 5-1), in words [1]: almost identical results | Hygroscopic capacity compared with the Example 1 monohydrate (TABLE 6-1), in words [2]: almost identical results | Doxorubicin (NMT 1%) ([3]; 0 weeks): 0.29 % (w/w) | Doxorubicinone (Aglycone) (NMT 1%) ([3]; 0 weeks): < 0.05 % (w/w) | Total Impurities (NMT 2%) ([3]; 0 weeks): 0.30 % (w/w) | Doxorubicin (NMT 1%) ([3]; 1 week, hydrochloride): 0.28 % (w/w) | Doxorubicinone (Aglycone) (NMT 1%) ([3]; 1 week, hydrochloride): 0.39 % (w/w) | Total Impurities (NMT 2%) ([3]; 1 week, hydrochloride): 0.80 % (w/w) | Unknown impurity RRT 1.7 (NMT 0.15%) ([3]; 1 week, hydrochloride): 0.08 % (w/w) | Doxorubicin (NMT 1%) ([3]; 2 weeks): 0.32 % (w/w) | Doxorubicinone (Aglycone) (NMT 1%) ([3]; 2 weeks, hydrochloride): 0.40 % (w/w) | Total Impurities (NMT 2%) ([3]; 2 weeks, hydrochloride): 0.90 % (w/w) | Unknown impurity RRT 1.2 (NMT 0.15%) ([3]; 2 weeks, hydrochloride): 0.07 % (w/w) | Unknown impurity RRT 1.6 (NMT 0.15%) ([3]; 2 weeks, hydrochloride): 0.05 % (w/w) | Unknown impurity RRT 1.7 (NMT 0.15%) ([3]; 2 weeks, hydrochloride): 0.09 % (w/w) | Doxorubicin (NMT 1%) ([3]; 3 weeks, hydrochloride): 0.32 % (w/w) | Doxorubicinone (Aglycone) (NMT 1%) ([3]; 3 weeks, hydrochloride): 0.46 % (w/w) | Total Impurities (NMT 2%) ([3]; 3 weeks, hydrochloride): 1.10 % (w/w) | Unknown impurity RRT 1.2 (NMT 0.15%) ([3]; 3 weeks, hydrochloride): 0.08 % (w/w) | Unknown impurity RRT 1.6 (NMT 0.15%) ([3]; 3 weeks, hydrochloride): 0.12 % (w/w) | Unknown impurity RRT 1.7 (NMT 0.15%) ([3]; 3 weeks, hydrochloride): 0.13 % (w/w) | Doxorubicin (NMT 1%) ([3]; 4 weeks): 0.33 % (w/w) | Doxorubicinone (Aglycone) (NMT 1%) ([3]; 4 weeks, hydrochloride): 0.49 % (w/w) | Total Impurities (NMT 2%) ([3]; 4 weeks, hydrochloride): 1.3* % (w/w) | Total amount of unknown impurities ([3]; 4 weeks, hydrochloride): 0.48 % (w/w) | Unknown impurity RRT 1.1 (NMT 0.15%) ([3]; 4 weeks, hydrochloride): 0.06 % (w/w) | Unknown impurity RRT 1.2 (NMT 0.15%) ([3]; 4 weeks, hydrochloride): 0.11 % (w/w) | Unknown impurity RRT 1.6 (NMT 0.15%) ([3]; 4 weeks, hydrochloride): 0.15 % (w/w) | Unknown impurity RRT 1.7 (NMT 0.15%) ([3]; 4 weeks, hydrochloride): 0.15 % (w/w) | Degradation under stress conditions compared with M1 and M2, in words ([3]; one month): less pronounced degradation | D(v/0.5), mean diameter based on the volume of the particles [4]: 25.25 μm
